From the supplement of paper PMC10307832

How the values were obtained:
Assay in all cases: relative viability (nuclei count vs DMSO), 5 days (fraction); higher = more cells survive
Doxorubicin + Luminespib = compound: COc1cccc2c1C(=O)c1c(O)c3c(c(O)c1C2=O)C[C@@](O)(C(=O)CO)C[C@@H]3O[C@H]1C[C@H](N)[C@H](O)[C@H](C)O1 [Doxorubicin] + CCNC(=O)c1noc(-c2cc(C(C)C)c(O)cc2O)c1-c1ccc(CN2CCOCC2)cc1 [Luminespib] (partner 0.01 µM)
How it was run: (§1)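 Lung cancer cell lines in 1536-well plates were dosed by pin tool the day after seeding, either with one drug alone or with a fixed anchor-drug dose plus five library-drug doses (not always all listed) in √10 steps. After 5 days, cells were fixed and their nuclei stained in one step (final 0.05% Triton X-100, 1% formaldehyde, 1 ug/ml Hoechst), then counted on 4× images. Relative viability is the nuclei count in treated wells divided by that in vehicle wells. Values are medians of duplicate plates.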

Doxorubicin + Foretinib = compound: COc1cccc2c1C(=O)c1c(O)c3c(c(O)c1C2=O)C[C@@](O)(C(=O)CO)C[C@@H]3O[C@H]1C[C@H](N)[C@H](O)[C@H](C)O1 [Doxorubicin] + COc1cc2c(Oc3ccc(NC(=O)C4(C(=O)Nc5ccc(F)cc5)CC4)cc3F)ccnc2cc1OCCCN1CCOCC1 [Foretinib] (partner 0.25 µM)
How it was run: as §1

Doxorubicin + Pictilisib = compound: COc1cccc2c1C(=O)c1c(O)c3c(c(O)c1C2=O)C[C@@](O)(C(=O)CO)C[C@@H]3O[C@H]1C[C@H](N)[C@H](O)[C@H](C)O1 [Doxorubicin] + CS(=O)(=O)N1CCN(Cc2cc3nc(-c4cccc5[nH]ncc45)nc(N4CCOCC4)c3s2)CC1 [Pictilisib] (partner 1 µM)
How it was run: as §1

Doxorubicin + Linsitinib = compound: COc1cccc2c1C(=O)c1c(O)c3c(c(O)c1C2=O)C[C@@](O)(C(=O)CO)C[C@@H]3O[C@H]1C[C@H](N)[C@H](O)[C@H](C)O1 [Doxorubicin] + C[C@]1(O)C[C@@H](c2nc(-c3ccc4ccc(-c5ccccc5)nc4c3)c3c(N)nccn32)C1 [Linsitinib] (partner 1 µM)
How it was run: as §1

Cell Line: UMC-11
- relative viability (Doxorubicin + Luminespib; first compound 0.001 µM): 0.998
- relative viability (Doxorubicin + Luminespib; first compound 0.003162 µM): 1.12
- relative viability (Doxorubicin + Luminespib; first compound 0.01 µM): 0.943
- relative viability (Doxorubicin + Luminespib; first compound 0.03162 µM): 0.642
- relative viability (Doxorubicin + Luminespib; first compound 0.1 µM): 0.601
- relative viability (Doxorubicin + Foretinib; first compound 0.001 µM): 0.963
- relative viability (Doxorubicin + Foretinib; first compound 0.003162 µM): 1.02
- relative viability (Doxorubicin + Foretinib; first compound 0.01 µM): 1.02
- relative viability (Doxorubicin + Foretinib; first compound 0.03162 µM): 0.685
- relative viability (Doxorubicin + Foretinib; first compound 0.1 µM): 0.644
- relative viability (Doxorubicin + Pictilisib; first compound 0.001 µM): 0.849
- relative viability (Doxorubicin + Pictilisib; first compound 0.003162 µM): 0.927
- relative viability (Doxorubicin + Pictilisib; first compound 0.01 µM): 0.769
- relative viability (Doxorubicin + Pictilisib; first compound 0.03162 µM): 0.445
- relative viability (Doxorubicin + Pictilisib; first compound 0.1 µM): 0.369
- relative viability (Doxorubicin + Linsitinib; first compound 0.001 µM): 1.1
- relative viability (Doxorubicin + Linsitinib; first compound 0.003162 µM): 1.13
- relative viability (Doxorubicin + Linsitinib; first compound 0.01 µM): 1.09
- relative viability (Doxorubicin + Linsitinib; first compound 0.03162 µM): 0.803
- relative viability (Doxorubicin + Linsitinib; first compound 0.1 µM): 0.875
